# Experimental data reported in patent US10004701B2, “Methods and compositions for treating infection” (UNIVERSITY OF ROCHESTER, priority 2012, dated 2018).
# Read-outs that look alike come from different tables or passages of the source.
# Assays:
# Assay in all cases: AK assay 384-well format, Prestwick library screening
# E. faecium = format: cell-based, Enterococcus faecium; conditions: 50 μM final drug concentration; for fold induction at 50 µM: Enterococcus faecium, 3 h
# [1] = system: S. aureus strain USA300-0114; format: cell-based, Staphylococcus aureus; conditions: 50 μM final drug concentration; for fold induction at 50 µM: Staphylococcus aureus, USA300, 3 h
# K. pneumoniae = format: cell-based, Klebsiella pneumoniae; conditions: 50 μM final drug concentration; for fold induction at 50 µM: Klebsiella pneumoniae, 3 h
# [2] = system: A. baumannii strain 98-37-09; format: cell-based, Acinetobacter baumannii; conditions: 50 μM final drug concentration; for fold induction at 50 µM: Acinetobacter baumannii, 983709, 3 h
# P. aeruginosa = format: cell-based, Pseudomonas aeruginosa; conditions: 50 μM final drug concentration; for fold induction at 50 µM: Pseudomonas aeruginosa, 3 h
# E. cloacae = format: cell-based, Enterobacter cloacae; conditions: 50 μM final drug concentration; for fold induction at 50 µM: Enterobacter cloacae, 3 h
# E. coli = format: cell-based, Escherichia coli; conditions: 50 μM final drug concentration; for fold induction at 50 µM: Escherichia coli, 3 h
# [3] = planktonic, cutoff for positive-scoring molecules 3-fold increase, read-out: AK-based Prestwick Library Screening Results, E. faecium (fold increase in extracellular AK activity)
# [4] = planktonic, cutoff for positive-scoring molecules 3-fold increase, read-out: AK-based Prestwick Library Screening Results, S. aureus (fold increase in extracellular AK activity)
# [5] = planktonic, cutoff for positive-scoring molecules 3-fold increase, read-out: AK-based Prestwick Library Screening Results, K. pneumoniae (fold increase in extracellular AK activity)
# [6] = planktonic, cutoff for positive-scoring molecules 3-fold increase, read-out: AK-based Prestwick Library Screening Results, A. baumannii (fold increase in extracellular AK activity)
# [7] = planktonic, cutoff for positive-scoring molecules 3-fold increase, read-out: AK-based Prestwick Library Screening Results, P. aeruginosa (fold increase in extracellular AK activity)
# [8] = planktonic, cutoff for positive-scoring molecules 3-fold increase, read-out: AK-based Prestwick Library Screening Results, E. cloacae (fold increase in extracellular AK activity)
# [9] = planktonic, cutoff for positive-scoring molecules 3-fold increase, read-out: AK-based Prestwick Library Screening Results, E. coli (fold increase in extracellular AK activity)
# [10] = planktonic, cutoff for positive-scoring molecules 3-fold increase
# [11] = 384-well format, cutoff for positive-scoring molecules 3-fold increase, read-out: AK-based Prestwick Library Screening Results, E. faecium (increase in extracellular AK activity)
# [12] = 384-well format, cutoff for positive-scoring molecules 3-fold increase, read-out: AK-based Prestwick Library Screening Results, S. aureus (increase in extracellular AK activity)
# [13] = 384-well format, cutoff for positive-scoring molecules 3-fold increase, read-out: AK-based Prestwick Library Screening Results, K. pneumoniae (increase in extracellular AK activity)
# [14] = 384-well format, cutoff for positive-scoring molecules 3-fold increase, read-out: AK-based Prestwick Library Screening Results, A. baumannii (increase in extracellular AK activity)
# [15] = 384-well format, cutoff for positive-scoring molecules 3-fold increase, read-out: AK-based Prestwick Library Screening Results, P. aeruginosa (increase in extracellular AK activity)
# [16] = 384-well format, cutoff for positive-scoring molecules 3-fold increase, read-out: AK-based Prestwick Library Screening Results, E. cloacae (increase in extracellular AK activity)
# [17] = 384-well format, cutoff for positive-scoring molecules 3-fold increase, read-out: AK-based Prestwick Library Screening Results, E. coli (increase in extracellular AK activity)
smiles,measurement,setting,value
COCCOC(=O)C1=C(C)NC(C)=C(C(=O)OC(C)C)C1c1cccc([N+](=O)[O-])c1 (stereo not shown) [Nimodipine],fold induction at 50 µM,E. faecium; [3],1
same,fold induction at 50 µM,[1]; [4],0.7
same,fold induction at 50 µM,K. pneumoniae; [5],0.7
same,fold induction at 50 µM,[2]; [6],1
same,fold induction at 50 µM,P. aeruginosa; [7],0.9
same,fold induction at 50 µM,E. cloacae; [8],1.4
same,fold induction at 50 µM,E. coli; [9],0.9
O=C1NCCN1c1ncc([N+](=O)[O-])s1 [Niridazole],fold induction at 50 µM,"E. faecium; planktonic, cutoff for positive 3-fold increase, read-out: AK-based Prestwick Library Screening Results, E. faecium (fold increase in extracellular AK activity)",1
same,fold induction at 50 µM,"[1]; planktonic, cutoff for positive 3-fold increase, read-out: AK-based Prestwick Library Screening Results, S. aureus (fold increase in extracellular AK activity)",1.8
same,fold induction at 50 µM,"K. pneumoniae; planktonic, cutoff for positive 3-fold increase, read-out: AK-based Prestwick Library Screening Results, K. pneumoniae (fold increase in extracellular AK activity)",6
same,fold induction at 50 µM,"[2]; planktonic, cutoff for positive 3-fold increase, read-out: AK-based Prestwick Library Screening Results, A. baumannii (fold increase in extracellular AK activity)",1.4
same,fold induction at 50 µM,"P. aeruginosa; planktonic, cutoff for positive 3-fold increase, read-out: AK-based Prestwick Library Screening Results, P. aeruginosa (fold increase in extracellular AK activity)",1.2
same,fold induction at 50 µM,"E. cloacae; planktonic, cutoff for positive 3-fold increase, read-out: AK-based Prestwick Library Screening Results, E. cloacae (fold increase in extracellular AK activity)",6.1
same,fold induction at 50 µM,"E. coli; planktonic, cutoff for positive 3-fold increase, read-out: AK-based Prestwick Library Screening Results, E. coli (fold increase in extracellular AK activity)",13.2
COC(=O)C1=C(C)NC(C)=C(C(=O)OCC(C)C)C1c1ccccc1[N+](=O)[O-] (stereo not shown) [Nisoldipine],fold induction at 50 µM,E. faecium; [3],0.9
same,fold induction at 50 µM,[1]; [4],0.4
same,fold induction at 50 µM,K. pneumoniae; [5],0.7
same,fold induction at 50 µM,[2]; [6],1.4
same,fold induction at 50 µM,P. aeruginosa; [7],0.8
same,fold induction at 50 µM,E. cloacae; [8],1
same,fold induction at 50 µM,E. coli; [9],0.9
Cl.Cl.c1ccc2c3c([nH]c2c1)C1C2CCC(C4CCCNC42)N1CC3 (stereo not shown) [Nitrarine dihydrochloride],"AK-based Prestwick Library Screening Results, E. faecium (fold increase in extracellular AK activity)",E. faecium; [10],1.0
same,"AK-based Prestwick Library Screening Results, S. aureus (fold increase in extracellular AK activity)",[1]; [10],1.3
same,"AK-based Prestwick Library Screening Results, K. pneumoniae (fold increase in extracellular AK activity)",K. pneumoniae; [10],1.1
same,"AK-based Prestwick Library Screening Results, A. baumannii (fold increase in extracellular AK activity)",[2]; [10],1.0
same,"AK-based Prestwick Library Screening Results, P. aeruginosa (fold increase in extracellular AK activity)",P. aeruginosa; [10],1.1
same,"AK-based Prestwick Library Screening Results, E. cloacae (fold increase in extracellular AK activity)",E. cloacae; [10],1.4
same,"AK-based Prestwick Library Screening Results, E. coli (fold increase in extracellular AK activity)","E. coli; planktonic, […]",1.2
CCOC(=O)C1=C(C)NC(C)=C(C(=O)OC)C1c1cccc([N+](=O)[O-])c1 (stereo not shown) [Nitrendipine],fold induction at 50 µM,E. faecium; [3],0.9
same,fold induction at 50 µM,[1]; [4],0.4
same,fold induction at 50 µM,K. pneumoniae; [5],0.8
same,fold induction at 50 µM,[2]; [6],0.9
same,fold induction at 50 µM,P. aeruginosa; [7],0.9
same,fold induction at 50 µM,E. cloacae; [8],1.4
same,fold induction at 50 µM,E. coli; [9],0.8
CCN(CC)CCOC(=O)C1(c2ccc([N+](=O)[O-])cc2)CCCC1.Cl [Nitrocaramiphen hydrochloride],"AK-based Prestwick library screening result, E. faecium (fold increase in extracellular AK activity)","E. faecium; planktonic E. faecium, […]",0.9
same,"AK-based Prestwick library screening result, S. aureus (fold increase in extracellular AK activity)","[1]; planktonic S. aureus, […]",0.6
same,"AK-based Prestwick library screening result, K. pneumoniae (fold increase in extracellular AK activity)","K. pneumoniae; planktonic K. pneumoniae, […]",0.7
same,"AK-based Prestwick library screening result, A. baumannii (fold increase in extracellular AK activity)","[2]; planktonic A. baumannii, […]",0.7
same,"AK-based Prestwick library screening result, P. aeruginosa (fold increase in extracellular AK activity)","P. aeruginosa; planktonic P. aeruginosa, […]",0.8
same,"AK-based Prestwick library screening result, E. cloacae (fold increase in extracellular AK activity)","E. cloacae; planktonic E. cloacae, […]",1.2
same,"AK-based Prestwick library screening result, E. coli (fold increase in extracellular AK activity)","E. coli; planktonic E. coli, […]",0.9
NC(=O)N/N=C/c1ccc([N+](=O)[O-])o1 [Nitrofural],fold induction at 50 µM,"E. faecium; planktonic E. faecium, cutoff for positive-scoring molecules 3-fold increase, read-out: AK-based Prestwick Library Screening Results, E. faecium (increase in extracellular AK activity)",1
same,fold induction at 50 µM,"[1]; planktonic S. aureus, cutoff for positive-scoring molecules 3-fold increase, read-out: AK-based Prestwick Library Screening Results, S. aureus (increase in extracellular AK activity)",0.5
same,fold induction at 50 µM,"K. pneumoniae; planktonic K. pneumoniae, cutoff for positive-scoring molecules 3-fold increase, read-out: AK-based Prestwick Library Screening Results, K. pneumoniae (increase in extracellular AK activity)",0.2
same,fold induction at 50 µM,"[2]; planktonic A. baumannii, cutoff for positive-scoring molecules 3-fold increase, read-out: AK-based Prestwick Library Screening Results, A. baumannii (increase in extracellular AK activity)",1
same,fold induction at 50 µM,"P. aeruginosa; planktonic P. aeruginosa, cutoff for positive-scoring molecules 3-fold increase, read-out: AK-based Prestwick Library Screening Results, P. aeruginosa (increase in extracellular AK activity)",0.8
same,fold induction at 50 µM,"E. cloacae; planktonic E. cloacae, cutoff for positive-scoring molecules 3-fold increase, read-out: AK-based Prestwick Library Screening Results, E. cloacae (increase in extracellular AK activity)",0.8
same,fold induction at 50 µM,"E. coli; planktonic E. coli, cutoff for positive-scoring molecules 3-fold increase, read-out: AK-based Prestwick Library Screening Results, E. coli (increase in extracellular AK activity)",0.7
O=C1CN(/N=C/c2ccc([N+](=O)[O-])o2)C(=O)N1 [Nitrofurantoin],fold induction at 50 µM,E. faecium; [11],1
same,fold induction at 50 µM,[1]; [12],0.4
same,fold induction at 50 µM,K. pneumoniae; [13],0.8
same,fold induction at 50 µM,[2]; [14],0.5
same,fold induction at 50 µM,P. aeruginosa; [15],0.4
same,fold induction at 50 µM,E. cloacae; [16],0.6
same,fold induction at 50 µM,E. coli; [17],0.4
CNC(=C[N+](=O)[O-])NCCSCc1csc(CN(C)C)n1 [Nizatidine],fold induction at 50 µM,"E. faecium; cutoff for positive-scoring molecules 3-fold increase, read-out: AK-based Prestwick Library Screening Results, E. faecium (fold increase in extracellular AK activity)",1
same,fold induction at 50 µM,"[1]; cutoff for positive-scoring molecules 3-fold increase, read-out: AK-based Prestwick Library Screening Results, S. aureus (fold increase in extracellular AK activity)",1.2
same,fold induction at 50 µM,"K. pneumoniae; cutoff for positive-scoring molecules 3-fold increase, read-out: AK-based Prestwick Library Screening Results, K. pneumoniae (fold increase in extracellular AK activity)",0.9
same,fold induction at 50 µM,"[2]; cutoff for positive-scoring molecules 3-fold increase, read-out: AK-based Prestwick Library Screening Results, A. baumannii (fold increase in extracellular AK activity)",1
same,fold induction at 50 µM,"P. aeruginosa; cutoff for positive-scoring molecules 3-fold increase, read-out: AK-based Prestwick Library Screening Results, P. aeruginosa (fold increase in extracellular AK activity)",1.2
same,fold induction at 50 µM,"E. cloacae; cutoff for positive-scoring molecules 3-fold increase, read-out: AK-based Prestwick Library Screening Results, E. cloacae (fold increase in extracellular AK activity)",1.7
same,fold induction at 50 µM,"E. coli; cutoff for positive-scoring molecules 3-fold increase, read-out: AK-based Prestwick Library Screening Results, E. coli (fold increase in extracellular AK activity)",1.3
COC(=O)Nc1nc2ccc(C(=O)c3cccs3)cc2[nH]1 [Nocodazole],fold induction at 50 µM,E. faecium; [11],0.9
same,fold induction at 50 µM,[1]; [12],0.6
same,fold induction at 50 µM,K. pneumoniae; [13],0.5
same,fold induction at 50 µM,[2]; [14],0.6
same,fold induction at 50 µM,P. aeruginosa; [15],0.6
same,fold induction at 50 µM,E. cloacae; [16],0.7
same,fold induction at 50 µM,E. coli; [17],0.6
